The subject of one test is HeLa. Briefly: In vitro cytotoxicity MTT assay. The format is cell-based. Conditions: Homo sapiens, 24 h treatment, mean ± SD of three experiments. Here is the method: (§1) Briefly, the cytotoxicity of the synthesized derivatives and the reference compounds was assessed via the MTT assay on four cancer cell lines. The cells were cultured in an RPMI11640 medium with 10% fetal bovine serum (FBS) and an antibiotic cocktail of […] streptomycin and 100 units/mL penicillin. Cancer cell lines were seeded independently in 96-well plates at a concentration of 1.0 × 10^4 cells/well at 37 °C, 5% CO2, and 100% relative humidity for 48 h. Afterwards, the incubated cells were treated with five concentrations of the synthesized derivatives for 24 h. Then, 20 µL MTT (5 mg/mL) was added and left for 4 h before adding 100 µL dimethyl sulfoxide (DMSO) to each well to solubilize the formed formazan.
In general terms: Formazan colour is commonly taken as a measure of viable cells.

The subject of another test is HepG2. Briefly: In vitro cytotoxicity MTT assay. The format is cell-based. The note with it: Homo sapiens, 24 h treatment, mean ± SD of three experiments. Here is the method: as §1
The subject of the next test is MCF-7. Briefly: In vitro cytotoxicity MTT assay. The note with it: Homo sapiens, MCF7, 24 h treatment, mean ± SD of three experiments. The format is cell-based. Here is the method:
as §1

Another test relates to MDA-MB-231. Description: In vitro cytotoxicity MTT assay. The format is cell-based. The note with it: Homo sapiens, 24 h treatment, mean ± SD of three experiments. The method, then:
as §1

In test [1] the test system is HepG2, MCF-7, MDA-MB-231, and HeLa cell lines. Briefly: In vitro cytotoxicity MTT assay, all tested cell lines. The format is cell-based, human. The method, then:
as §1

Test [2] has as its system HepG2 cells. Description: Cell cycle analysis (propidium iodide flow cytometry). The format is cell-based, human. Conditions: 6.11 μM, 24 h. The method, then:
Cell cycle analysis can determine at which phase in the cell cycle apoptosis occurs. The cell cycle is four phases consisting of G1 (growth), S (DNA synthesis), G2 (growth and preparation for mitosis), and M (mitosis). Normal cell growth and proliferation are controlled by various checkpoints at these phases. Thus, HepG2 cells were treated with 6.11 μM of compound 5 to determine at which phase apoptosis occurs in the cell cycle for 24 h (Figure 3 and Table 4).
Effect of compound 5 on cell cycle distribution was analyzed using following the method described in [17, 29]. Briefly, to determine the influence of compound 5 on the cell cycle progression of HepG2 cells, flow cytometry analysis was performed using Propidium Iodide flow cytometry kit/BD (ab139418). First, the cells were cultured at a density of 2 × 10^5/well and incubated for 24 h. Afterwards, the cells were treated with compound 5 for 24 h. Then, the cells were fixed using 70% ethanol for 12 h at 4 °C. The cells were then washed with cold PBS, incubated with 100 µL RNase A for 30 min at 37 °C, and stained with Propidium Iodide (400 µL) in the dark at room temperature for 30 min. The stained cells were identified by running Epics XLMCL™ flow cytometer equipment (Beckman Coulter, Apeldoorn, The Netherlands), and the results were interpreted using Flowing software (version 2.5.1, Turku Centre for Biotechnology, Turku, Finland).
On the technique in general: In flow cytometry, cells or beads pass a laser one at a time.

Test [3] concerns HepG2 cells. Briefly: Apoptosis analysis (Annexin V-FITC/PI flow cytometry). The format is cell-based, human. Here is the method:
Annexin V and propidium iodide (PI) reagent were used to detect the cell death in apoptosis by binding to phosphatidyl serine and DNA in plasma membrane, respectively. The cell death was examined by staining HepG2 cells with Annexin V and PI, and cellular fluorescence analysis was then performed using flow cytometry (Table 5). According to the results, compound 5 induced apoptosis by 160-fold in the late stage and by 20-fold in the early stage. […] As shown in the dot plot results, compound 5 caused exerted noticeable cell damage compared to untreated cells (Figure 4). Collectively, the results of cell cycle and apoptosis analysis confirmed the cytotoxicity effects of compound 5.
Effect of compound 5 on cell programmed cell death was analyzed using Annexin V-FITC cell apoptosis detection kit (K101-100) (BioVision Techology, Inc., Exon, PA, USA) by following the method described in [17, 30]. Briefly, in 6-well plates, HepG2 cells at a density of 2 × 10^5 were cultured and incubated for 24 h. The cultured cells were then treated with compound 5 for 24 h. Afterwards, the cells were trypsinized and gathered via centrifugation (5 min, 300× g), washed twice with PBS, and suspended in 0.1 mL of a 1X binding buffer. Then, the cells were double-stained with 5 µL Annexin V-FITC and 5 µL PI in the dark at room temperature for 15 min before they were examined using an Epics XL-MCL™ Flow Cytometer (Beckman Coulter, Apeldoorn, The Netherlands). The excitation wavelength was 488 nm while the emission wavelength was 530 nm. Finally, the data were analyzed using Flowing software (version 2.5.1, Turku Centre for Biotechnology, Turku, Finland).

The subject of another test is caspase 3. Description: Caspase 3 level assay (ELISA) in HepG2. The format is cell-based, human. The note with it: HepG2 cells, 24 h, vs untreated control. The method, then:
(§2) The effect of compound 5 was also evaluated on caspase 3, caspase 9, BAX, and Bcl-2 protein levels in HepG2 (Table 6). […] Additionally, the level of Bcl-2 was reduced in the treated cells (0.18-fold) compared to untreated control cells.
(§3) Compound 5 effect on Caspase 3, caspase 9, BAX, and Bcl-2 levels was analyzed by following the method described in [17]. In 96-well plates, HepG2 cells were cultured and incubated for 24 h. The cells were then treated with compound 5 or 0.1% DMSO (v/v) for 24 h. Afterwards, caspase 3 and 9, BAX, and Bcl-2 levels were determined using ELISA assay kits KHO1091 (InvitrogenTM, Grand Island, NY, USA), EIA-4860 (DRU International Inc., Mountainside, NJ, USA), EIA-4487 (DRU International Inc., Mountainside, NJ, USA), and 99-0042 (InvitrogenTM, Grand Island, NY, USA), respectively, according to the manufacturers’ procedures.
On the technique in general: In an ELISA, binding on a coated surface is turned into a signal by an enzyme label.

The subject of another test is caspase 9. Description: Caspase 9 level assay (ELISA) in HepG2. The format is cell-based, human. Conditions: HepG2 cells, 24 h, vs untreated control. Here is the method:
as §2, §3

Another test concerns BAX. Description: BAX level assay (ELISA) in HepG2. The format is cell-based, human. The note with it: HepG2 cells, 24 h, vs untreated control. The method, then:
as §2, §3

The test system of another test is Bcl-2. Briefly: Bcl-2 level assay (ELISA) in HepG2. The format is cell-based, human. The note with it: HepG2 cells, 24 h, vs untreated control. Here is the method: as §2, §3
For the next test, the target named is CDK2 (Homo sapiens, UniProt P24941). Briefly: Kinase inhibition assay (ELISA kit).
In another test the target is EGFR (Homo sapiens, UniProt P00533). Description: Kinase inhibition assay (ELISA kit).
In another test the target is HER2 (Homo sapiens, UniProt P04626). Description: Kinase inhibition assay (ELISA kit).
For the next test, the target named is VEGFR2 (Homo sapiens, UniProt P35968). Description: Kinase inhibition assay (ELISA kit).
VEGFR2, sequence (P35968 20-1356): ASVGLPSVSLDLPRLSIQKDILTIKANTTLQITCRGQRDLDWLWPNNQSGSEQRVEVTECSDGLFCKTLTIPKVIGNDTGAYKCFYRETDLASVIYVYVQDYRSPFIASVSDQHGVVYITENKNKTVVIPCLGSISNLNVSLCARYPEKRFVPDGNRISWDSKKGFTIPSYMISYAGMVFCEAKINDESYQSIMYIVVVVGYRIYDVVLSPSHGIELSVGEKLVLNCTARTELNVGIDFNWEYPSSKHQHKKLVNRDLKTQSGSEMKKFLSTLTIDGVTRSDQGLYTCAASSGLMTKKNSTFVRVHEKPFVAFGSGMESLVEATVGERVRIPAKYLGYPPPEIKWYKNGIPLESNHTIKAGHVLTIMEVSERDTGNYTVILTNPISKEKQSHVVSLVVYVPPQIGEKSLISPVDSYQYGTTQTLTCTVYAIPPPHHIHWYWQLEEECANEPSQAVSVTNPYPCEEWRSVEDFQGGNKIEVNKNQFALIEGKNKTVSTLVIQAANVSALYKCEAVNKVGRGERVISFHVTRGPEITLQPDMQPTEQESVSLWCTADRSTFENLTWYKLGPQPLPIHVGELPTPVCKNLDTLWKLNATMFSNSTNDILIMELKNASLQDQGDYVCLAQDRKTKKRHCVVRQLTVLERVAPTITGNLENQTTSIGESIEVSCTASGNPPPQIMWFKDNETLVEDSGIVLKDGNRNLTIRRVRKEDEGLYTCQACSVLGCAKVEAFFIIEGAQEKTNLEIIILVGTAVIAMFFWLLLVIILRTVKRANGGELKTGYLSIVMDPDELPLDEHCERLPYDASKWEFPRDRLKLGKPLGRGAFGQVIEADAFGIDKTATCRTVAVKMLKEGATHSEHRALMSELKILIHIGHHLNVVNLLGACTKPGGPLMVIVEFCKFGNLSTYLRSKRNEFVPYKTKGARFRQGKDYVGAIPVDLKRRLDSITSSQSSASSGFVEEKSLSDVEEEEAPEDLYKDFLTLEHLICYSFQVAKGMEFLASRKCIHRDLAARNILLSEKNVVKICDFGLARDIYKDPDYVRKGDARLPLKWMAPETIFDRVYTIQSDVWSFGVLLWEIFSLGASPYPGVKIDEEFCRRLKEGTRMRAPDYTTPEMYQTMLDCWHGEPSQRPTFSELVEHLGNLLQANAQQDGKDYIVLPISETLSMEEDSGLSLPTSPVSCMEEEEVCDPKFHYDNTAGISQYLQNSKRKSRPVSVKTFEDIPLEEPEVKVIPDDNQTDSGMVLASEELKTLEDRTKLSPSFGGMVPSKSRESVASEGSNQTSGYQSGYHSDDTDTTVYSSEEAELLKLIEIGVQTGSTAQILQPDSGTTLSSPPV

HER2, sequence (P04626 23-1255): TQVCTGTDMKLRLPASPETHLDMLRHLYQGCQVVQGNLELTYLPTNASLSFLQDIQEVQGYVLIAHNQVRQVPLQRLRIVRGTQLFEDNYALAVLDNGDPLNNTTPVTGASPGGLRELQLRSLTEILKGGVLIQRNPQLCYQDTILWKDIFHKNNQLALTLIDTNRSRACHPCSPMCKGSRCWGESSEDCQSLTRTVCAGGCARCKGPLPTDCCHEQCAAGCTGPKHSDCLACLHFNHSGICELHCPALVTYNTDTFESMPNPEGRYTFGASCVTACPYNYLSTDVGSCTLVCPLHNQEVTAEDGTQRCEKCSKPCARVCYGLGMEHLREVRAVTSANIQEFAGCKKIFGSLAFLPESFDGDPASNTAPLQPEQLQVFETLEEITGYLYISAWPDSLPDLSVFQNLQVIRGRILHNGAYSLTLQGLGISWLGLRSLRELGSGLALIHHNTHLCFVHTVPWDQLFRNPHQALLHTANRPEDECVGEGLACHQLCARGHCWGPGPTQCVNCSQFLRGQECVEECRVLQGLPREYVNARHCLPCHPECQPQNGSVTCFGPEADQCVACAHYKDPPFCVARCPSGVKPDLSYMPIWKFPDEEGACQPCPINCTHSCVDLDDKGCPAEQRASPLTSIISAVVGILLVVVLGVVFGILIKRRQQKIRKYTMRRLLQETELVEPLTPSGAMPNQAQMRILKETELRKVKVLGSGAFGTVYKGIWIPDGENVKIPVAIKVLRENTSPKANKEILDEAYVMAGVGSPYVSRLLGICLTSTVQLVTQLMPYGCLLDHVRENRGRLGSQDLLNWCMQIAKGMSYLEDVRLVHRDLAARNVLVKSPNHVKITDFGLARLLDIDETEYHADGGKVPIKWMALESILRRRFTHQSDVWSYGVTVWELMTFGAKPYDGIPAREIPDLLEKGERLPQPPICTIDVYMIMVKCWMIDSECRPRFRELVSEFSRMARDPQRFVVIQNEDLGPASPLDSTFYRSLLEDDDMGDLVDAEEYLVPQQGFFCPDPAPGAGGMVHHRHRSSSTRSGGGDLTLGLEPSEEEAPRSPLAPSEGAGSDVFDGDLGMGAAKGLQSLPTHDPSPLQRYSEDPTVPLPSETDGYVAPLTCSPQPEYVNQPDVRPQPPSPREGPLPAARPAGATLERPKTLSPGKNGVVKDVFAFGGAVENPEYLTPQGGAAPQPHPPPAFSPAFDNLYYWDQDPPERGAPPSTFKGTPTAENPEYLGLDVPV
EGFR, sequence (P00533 25-1210): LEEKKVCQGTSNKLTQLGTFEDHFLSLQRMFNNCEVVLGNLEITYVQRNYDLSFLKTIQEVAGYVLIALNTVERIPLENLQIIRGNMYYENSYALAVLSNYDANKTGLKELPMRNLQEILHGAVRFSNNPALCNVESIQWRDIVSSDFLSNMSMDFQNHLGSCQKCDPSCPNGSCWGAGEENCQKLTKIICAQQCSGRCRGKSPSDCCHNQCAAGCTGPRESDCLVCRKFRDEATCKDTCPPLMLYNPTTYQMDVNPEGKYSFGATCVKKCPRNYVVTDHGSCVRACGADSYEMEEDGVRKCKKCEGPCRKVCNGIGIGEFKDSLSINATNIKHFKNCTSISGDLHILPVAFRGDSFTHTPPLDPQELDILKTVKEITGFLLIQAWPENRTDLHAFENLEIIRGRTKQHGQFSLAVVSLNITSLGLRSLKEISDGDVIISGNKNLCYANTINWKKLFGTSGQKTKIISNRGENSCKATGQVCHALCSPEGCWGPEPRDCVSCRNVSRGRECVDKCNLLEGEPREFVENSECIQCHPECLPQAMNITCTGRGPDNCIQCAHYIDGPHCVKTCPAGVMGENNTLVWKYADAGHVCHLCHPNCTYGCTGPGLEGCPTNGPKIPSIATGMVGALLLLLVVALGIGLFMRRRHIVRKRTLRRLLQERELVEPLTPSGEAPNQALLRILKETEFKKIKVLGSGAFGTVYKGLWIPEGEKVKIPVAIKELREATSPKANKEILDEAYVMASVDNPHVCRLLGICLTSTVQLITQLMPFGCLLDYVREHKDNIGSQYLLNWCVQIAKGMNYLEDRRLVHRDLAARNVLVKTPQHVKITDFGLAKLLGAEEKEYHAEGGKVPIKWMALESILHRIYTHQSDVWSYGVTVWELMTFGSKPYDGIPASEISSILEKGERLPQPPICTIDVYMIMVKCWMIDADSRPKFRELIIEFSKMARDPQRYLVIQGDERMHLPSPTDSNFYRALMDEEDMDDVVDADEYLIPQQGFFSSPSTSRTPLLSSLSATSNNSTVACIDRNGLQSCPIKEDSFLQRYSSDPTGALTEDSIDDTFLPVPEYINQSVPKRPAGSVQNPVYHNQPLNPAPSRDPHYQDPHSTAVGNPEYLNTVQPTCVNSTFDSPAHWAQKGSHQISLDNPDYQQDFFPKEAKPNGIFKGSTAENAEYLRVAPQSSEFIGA
Procedure for CDK2: (§4) In vitro kinase inhibition assays were assessed against CDK2, EGFR, HER2, and VEGFR2, as described in [17, 27, 28]. […] Afterwards, the wells were washed. Then, 100 µL of the prepared biotin antibody was placed into each well and left for 1 h at room temperature. The wells were washed again before adding 100 µL of streptavidin solution and left for 45 min at room temperature. Then, 100 µL of TMB substrate reagent was added after a third washing step, and the plates were left for 30 min at room temperature. Finally, 50 µL of the stop solution was added to each well and the color intensity was measured at 450 nm.
Procedure for HER2: as §4
Procedure for VEGFR2: as §4

Consider `O=C1Nc2ccccc2C1=NNC(=O)c1ccc(Nc2ncnc3[nH]ccc23)cc1` [Compound 1, 4-((7H-pyrrolo[2,3-d]pyrimidin-4-yl)amino)-N′-(2-oxoindolin-3-ylidene)benzohydrazide], for which the IC50 was found to be 12.4 ± 0.9 µM with HeLa, 25.8 ± 1.9 µM with HepG2, 18.5 ± 1.5 µM in the test on MCF-7 and 16 ± 1.3 µM in the test with MDA-MB-231. Moreover, the “Antiproliferative activity (in words)” value in test [1] is “moderate antiproliferative activity”.

In the case of `O=C1Nc2ccc(Cl)cc2C1=NNC(=O)c1ccc(Nc2ncnc3[nH]ccc23)cc1` [Compound 2, 4-((7H-pyrrolo[2,3-d]pyrimidin-4-yl)amino)-N′-(5-chloro-2-oxoindolin-3-ylidene)benzohydrazide], the IC50 is 45.4 ± 2.6 µM in the test on HeLa, 67.4 ± 3.6 µM in the test with HepG2, 72.5 ± 3.7 µM with MCF-7 and 51.3 ± 2.9 µM with MDA-MB-231.

Take `O=C1Nc2ccc(F)cc2C1=NNC(=O)c1ccc(Nc2ncnc3[nH]ccc23)cc1` [Compound 3, 4-((7H-pyrrolo[2,3-d]pyrimidin-4-yl)amino)-N′-(5-fluoro-2-oxoindolin-3-ylidene)benzohydrazide]: the concentration for half-maximal inhibition (IC50) is 39.1 ± 2.4 µM with HeLa, 59.3 ± 3.3 µM with HepG2, 63.7 ± 3.4 µM with MCF-7 and 42.9 ± 2.6 µM in the test with MDA-MB-231.

For the compound `Cc1ccc2c(c1)C(=NNC(=O)c1ccc(Nc3ncnc4[nH]ccc34)cc1)C(=O)N2` [Compound 4, 4-((7H-pyrrolo[2,3-d]pyrimidin-4-yl)amino)-N′-(5-methyl-2-oxoindolin-3-ylidene)benzohydrazide], the IC50 in the test with HeLa amounted to 75.4 ± 3.5 µM; with HepG2, 92.7 ± 4.5 µM; in the test on MCF-7, 80.2 ± 4.2 µM; in the test on MDA-MB-231 it was 73.2 ± 3.3 µM.

`COc1ccc2c(c1)C(=NNC(=O)c1ccc(Nc3ncnc4[nH]ccc34)cc1)C(=O)N2` [Compound 5, 4-((7H-pyrrolo[2,3-d]pyrimidin-4-yl)amino)-N′-(5-methoxy-2-oxoindolin-3-ylidene)benzohydrazide]: the IC50 in the test with HeLa came to 1.98 ± 0.1 µM; in the test on HepG2, 6.11 ± 0.4 µM; in the test with MCF-7 it was 5.93 ± 0.3 µM; with MDA-MB-231, 2.48 ± 0.1 µM; at CDK2, 0.131 ± 0.007 µM; on EGFR it was 0.103 ± 0.006 µM. Also, the IC50 was found to be 0.081 ± 0.002 µM against HER2 and 0.178 ± 0.009 µM on VEGFR2. Besides, the “Cell Cycle Distribution %G0-G1” value in the test on HepG2 cells [2] worked out at 49.02%. In addition, in the test with HepG2 cells [2], the “Cell Cycle Distribution %G2/M” value is listed as 6.05%. For the same compound, the “Cell Cycle Distribution %Pre-G1” value in the test with HepG2 cells [2] came out at 39.72%. Also, the “Cell Cycle Distribution %S” value with HepG2 cells [2] is 44.93%. Also, in the test with HepG2 cells [2], the “Cell cycle arrest phase” value was “arrested the cell cycle of HepG2 cells at G1 and S phases”. Also, in the test on HepG2 cells [3] (24 h, Annexin V-FITC/PI), the “Apoptosis Early” value amounted to 13.28%. The “Apoptosis Late” value in the test with HepG2 cells [3] (24 h, Annexin V-FITC/PI) was 21.16%. Also, the Necrosis in the test with HepG2 cells [3] (24 h, Annexin V-FITC/PI) is recorded as 5.28%. Further, the “Increase in necrotic cell death” value in the test on HepG2 cells [3] (compared to untreated cells) is 4.75 fold. Moreover, in the test with HepG2 cells [3] (compared to untreated cells), the “Induction of apoptosis in the early stage” value is recorded as 20 fold. The “Induction of apoptosis in the late stage” value in the test with HepG2 cells [3] (compared to untreated cells) worked out at 160 fold. The results for the “Gene Expression Fold Change Caspase 3” value in the test with caspase 3 and in the test on caspase 3 (listed as compound 5) were 7.984 fold and 8 fold, respectively. Also, the “Gene Expression Fold Change Caspase 9” value in the test on caspase 9 stood at 4.853 fold; in the test with caspase 9 (listed as compound 5), 5 fold. Moreover, the “Gene Expression Fold Change Bax” value worked out at 6.13 fold in the test on BAX and 6 fold with BAX (listed as compound 5). The entries for the “Gene Expression Fold Change Bcl-2” value with Bcl-2 and in the test on Bcl-2 (listed as compound 5) were 0.184 fold and 0.18 fold, respectively.

In the test with HepG2, `COc1cccc2c1C(=O)c1c(O)c3c(c(O)c1C2=O)C[C@@](O)(C(=O)CO)C[C@@H]3O[C@H]1C[C@H](N)[C@H](O)[C@H](C)O1` [DOXORUBICIN, doxorubicin, reference compound] returned an IC50 of 4.5 ± 0.2 µM.

With `CCN(CC)CCNC(=O)c1c(C)[nH]c(/C=C2\C(=O)Nc3ccc(F)cc32)c1C` [Sunitinib, reference compound], the half-inhibitory concentration (IC50) with HeLa was found to be 7.48 ± 0.6 µM; in the test on HepG2, 6.82 ± 0.5 µM; with MCF-7, 5.19 ± 0.4 µM; in the test on MDA-MB-231, 8.41 ± 0.7 µM.

A word on the IC50: it is the point on the concentration scale where inhibition reaches its midpoint.

Source of the values: PMC10420662, “Novel 7-Deazapurine Incorporating Isatin Hybrid Compounds as Protein Kinase Inhibitors: Design, Synthesis, In Silico Studies, and Antiproliferative Evaluation” (Molecules, 2023).
